Measured values reported in the supplement of paper PMC10307832.

What was measured:
Experiment in all cases: relative viability (nuclei count vs DMSO), 5 days (fraction); higher = more cells survive
NCI-H23 = test system: NCI-H23
In short: (§1)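 Lung cancer cell lines in 1536-well plates got either a single drug or a fixed anchor-drug dose together with five library-drug doses (not always all listed) in √10 steps, by pin tool, on the day after seeding. Nuclei were counted after 5 days, and relative viability is the treated-to-vehicle ratio of nuclei counts. Values are medians of duplicate plates.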

NCI-H2087 = test system: NCI-H2087
In short: as §1

NCI-H596 = test system: NCI-H596
In short: as §1

LCLC-103H = test system: LCLC-103H
In short: as §1

NCI-H3122 = test system: NCI-H3122
In short: as §1

NCI-H2347 = test system: NCI-H2347
In short: as §1

NCI-H1395 = test system: NCI-H1395
In short: as §1

NCI-H1993 = test system: NCI-H1993
In short: as §1

NCI-H727 = test system: NCI-H727
In short: as §1

NCI-H2023 = test system: NCI-H2023
In short: as §1

NCI-H650 = test system: NCI-H650
In short: as §1

EMC-BAC-2 = test system: EMC-BAC-2
In short: as §1

NCI-H647 = test system: NCI-H647
In short: as §1

NCI-H838 = test system: NCI-H838
In short: as §1

201T = test system: 201T
In short: as §1

HARA = test system: HARA
In short: as §1

NCI-H441 = test system: NCI-H441
In short: as §1

BEN = test system: BEN
In short: as §1

HCC-44 = test system: HCC-44
In short: as §1

NCI-H2126 = test system: NCI-H2126
In short: as §1

LOU-NH91 = test system: LOU-NH91
In short: as §1

NCI-H1666 = test system: NCI-H1666
In short: as §1

NCI-H2009 = test system: NCI-H2009
In short: as §1

In the case of `NC(=O)Nc1cc(-c2cccc(F)c2)sc1C(=O)N[C@H]1CCCNC1` [AZD7762] + Cc1nc(NC(=O)N2CCC[C@H]2C(N)=O)sc1-c1ccnc(C(C)(C)C(F)(F)F)c1 [Alpelisib] (partner 2 µM), the relative viability (NCI-H23; first compound 0.01 µM) was 0.859, the relative viability (NCI-H23; first compound 0.03162 µM) was 0.721 and the relative viability (NCI-H23; first compound 0.1 µM) was 0.745. The relative viability (NCI-H23; first compound 0.3162 µM) was 0.562, the relative viability (NCI-H23; first compound 1 µM) was 0.418 and the relative viability (NCI-H2087; first compound 0.01 µM) was 1.18. It also gave a relative viability (NCI-H2087; first compound 0.03162 µM) of 1.08, a relative viability (NCI-H2087; first compound 0.1 µM) of 1.45 and a relative viability (NCI-H2087; first compound 0.3162 µM) of 1.34. The relative viability (NCI-H2087; first compound 1 µM) was 1.27, the relative viability (NCI-H596; first compound 0.01 µM) was 0.549 and the relative viability (NCI-H596; first compound 0.03162 µM) was 0.514. It also gave a relative viability (NCI-H596; first compound 0.1 µM) of 0.481, a relative viability (NCI-H596; first compound 0.3162 µM) of 0.503 and a relative viability (NCI-H596; first compound 1 µM) of 0.421. It also gave a relative viability (LCLC-103H; first compound 0.01 µM) of 1.01, a relative viability (LCLC-103H; first compound 0.03162 µM) of 0.962 and a relative viability (LCLC-103H; first compound 0.1 µM) of 0.889. The relative viability (LCLC-103H; first compound 0.3162 µM) was 0.977, the relative viability (LCLC-103H; first compound 1 µM) was 0.9 and the relative viability (NCI-H3122; first compound 0.01 µM) was 0.768. The relative viability (NCI-H3122; first compound 0.03162 µM) was 0.866, the relative viability (NCI-H3122; first compound 0.1 µM) was 0.737 and the relative viability (NCI-H3122; first compound 0.3162 µM) was 0.748. For the same compound, the relative viability (NCI-H3122; first compound 1 µM) was 0.758, the relative viability (NCI-H2347; first compound 0.01 µM) was 1.07 and the relative viability (NCI-H2347; first compound 0.03162 µM) was 0.993. For the same compound, the relative viability (NCI-H2347; first compound 0.1 µM) was 1.11, the relative viability (NCI-H2347; first compound 0.3162 µM) was 1.26 and the relative viability (NCI-H2347; first compound 1 µM) was 1.01. The relative viability (NCI-H1395; first compound 0.01 µM) was 1.2, the relative viability (NCI-H1395; first compound 0.03162 µM) was 1.1 and the relative viability (NCI-H1395; first compound 0.1 µM) was 1.16. It also gave a relative viability (NCI-H1395; first compound 0.3162 µM) of 0.649, a relative viability (NCI-H1395; first compound 1 µM) of 0.436 and a relative viability (NCI-H1993; first compound 0.01 µM) of 0.671. For the same compound, the relative viability (NCI-H1993; first compound 0.03162 µM) was 0.708, the relative viability (NCI-H1993; first compound 0.1 µM) was 0.651 and the relative viability (NCI-H1993; first compound 0.3162 µM) was 0.673. For the same compound, the relative viability (NCI-H1993; first compound 1 µM) was 0.753, the relative viability (NCI-H727; first compound 0.01 µM) was 0.583 and the relative viability (NCI-H727; first compound 0.03162 µM) was 0.561. It also gave a relative viability (NCI-H727; first compound 0.1 µM) of 0.471, a relative viability (NCI-H727; first compound 0.3162 µM) of 0.466 and a relative viability (NCI-H727; first compound 1 µM) of 0.218. It also gave a relative viability (NCI-H2023; first compound 0.01 µM) of 0.651, a relative viability (NCI-H2023; first compound 0.03162 µM) of 0.608 and a relative viability (NCI-H2023; first compound 0.1 µM) of 0.436. The relative viability (NCI-H2023; first compound 0.3162 µM) was 0.328, the relative viability (NCI-H2023; first compound 1 µM) was 0.108 and the relative viability (NCI-H650; first compound 0.01 µM) was 1.19. For the same compound, the relative viability (NCI-H650; first compound 0.03162 µM) was 1.12, the relative viability (NCI-H650; first compound 0.1 µM) was 1.19 and the relative viability (NCI-H650; first compound 0.3162 µM) was 1.27. The relative viability (NCI-H650; first compound 1 µM) was 1.02, the relative viability (EMC-BAC-2; first compound 0.01 µM) was 0.82 and the relative viability (EMC-BAC-2; first compound 0.03162 µM) was 0.72. For the same compound, the relative viability (EMC-BAC-2; first compound 0.1 µM) was 0.79, the relative viability (EMC-BAC-2; first compound 0.3162 µM) was 0.762 and the relative viability (EMC-BAC-2; first compound 1 µM) was 0.797. It also gave a relative viability (NCI-H647; first compound 0.01 µM) of 1.28, a relative viability (NCI-H647; first compound 0.03162 µM) of 1.02 and a relative viability (NCI-H647; first compound 0.1 µM) of 1.04. For the same compound, the relative viability (NCI-H647; first compound 0.3162 µM) was 0.61, the relative viability (NCI-H647; first compound 1 µM) was 0.104 and the relative viability (NCI-H838; first compound 0.01 µM) was 1. It also gave a relative viability (NCI-H838; first compound 0.03162 µM) of 1.01, a relative viability (NCI-H838; first compound 0.1 µM) of 0.871 and a relative viability (NCI-H838; first compound 0.3162 µM) of 0.959. For the same compound, the relative viability (NCI-H838; first compound 1 µM) was 0.616, the relative viability (201T; first compound 0.01 µM) was 1.01 and the relative viability (201T; first compound 0.03162 µM) was 1.05. For the same compound, the relative viability (201T; first compound 0.1 µM) was 1.02, the relative viability (201T; first compound 0.3162 µM) was 1.08 and the relative viability (201T; first compound 1 µM) was 1.11. It also gave a relative viability (HARA; first compound 0.01 µM) of 0.889, a relative viability (HARA; first compound 0.03162 µM) of 0.887 and a relative viability (HARA; first compound 0.1 µM) of 0.825. The relative viability (HARA; first compound 0.3162 µM) was 0.751, the relative viability (HARA; first compound 1 µM) was 0.824 and the relative viability (NCI-H441; first compound 0.01 µM) was 1.17. For the same compound, the relative viability (NCI-H441; first compound 0.03162 µM) was 0.831, the relative viability (NCI-H441; first compound 0.1 µM) was 1.2 and the relative viability (NCI-H441; first compound 0.3162 µM) was 1.01. For the same compound, the relative viability (NCI-H441; first compound 1 µM) was 1.09, the relative viability (BEN; first compound 0.01 µM) was 1.21 and the relative viability (BEN; first compound 0.03162 µM) was 0.992. For the same compound, the relative viability (BEN; first compound 0.1 µM) was 0.883, the relative viability (BEN; first compound 0.3162 µM) was 1.06 and the relative viability (BEN; first compound 1 µM) was 0.845. For the same compound, the relative viability (HCC-44; first compound 0.01 µM) was 0.818, the relative viability (HCC-44; first compound 0.03162 µM) was 0.751 and the relative viability (HCC-44; first compound 0.1 µM) was 0.831. It also gave a relative viability (HCC-44; first compound 0.3162 µM) of 0.755, a relative viability (HCC-44; first compound 1 µM) of 0.952 and a relative viability (NCI-H2126; first compound 0.01 µM) of 0.794. The relative viability (NCI-H2126; first compound 0.03162 µM) was 0.775, the relative viability (NCI-H2126; first compound 0.1 µM) was 0.887 and the relative viability (NCI-H2126; first compound 0.3162 µM) was 0.824. It also gave a relative viability (NCI-H2126; first compound 1 µM) of 0.85, a relative viability (LOU-NH91; first compound 0.01 µM) of 0.731 and a relative viability (LOU-NH91; first compound 0.03162 µM) of 0.741. It also gave a relative viability (LOU-NH91; first compound 0.1 µM) of 0.645, a relative viability (LOU-NH91; first compound 0.3162 µM) of 0.612 and a relative viability (LOU-NH91; first compound 1 µM) of 0.478. It also gave a relative viability (NCI-H1666; first compound 0.01 µM) of 1.12, a relative viability (NCI-H1666; first compound 0.03162 µM) of 1.24 and a relative viability (NCI-H1666; first compound 0.1 µM) of 1.18. It also gave a relative viability (NCI-H1666; first compound 0.3162 µM) of 1.02, a relative viability (NCI-H1666; first compound 1 µM) of 0.75 and a relative viability (NCI-H2009; first compound 0.01 µM) of 1.3. For the same compound, the relative viability (NCI-H2009; first compound 0.03162 µM) was 1.15, the relative viability (NCI-H2009; first compound 0.1 µM) was 1.27 and the relative viability (NCI-H2009; first compound 0.3162 µM) was 1.08. The relative viability (NCI-H2009; first compound 1 µM) was 1.11.
